The values below come from patent US9181588B2, “Methods of treating breast cancer with taxane therapy” (The University of Utah Research Foundation, priority 2011, dated 2015).

The assay has as its system node-positive breast cancers. As to the kind of experiment: GEICAM/9906 randomized phase III adjuvant trial, FEC versus FEC-P: overall and disease-free survival, by PAM50 proliferation score. Format: in vivo, human. As to conditions: FEC-P vs. FEC; lowest quartile of 11-gene proliferation score. The method, then:
The primary endpoint of the […]/9906 clinical trial was disease-free survival. Secondary endpoints were: (a) overall survival; (b) prognostic and predictive value of molecular/genomic markers and (c) safety. The study was performed in accordance with the Declaration of Helsinki, approved by the ethics committees at all participating institutions and the Spanish Health Authority, and it was registered at www.clinicaltrials.gov (identifier code: NCT00129922). All patients provided written informed consent for therapy randomization and molecular analyses. […] Samples were gene expression profiled using the previously described RT-qPCR assay and analyzed using the clinical algorithm for subtype prediction (Parker et al., J Clin Oncol 27:1160-1167, 2009; Amp Laboratories: PAM50 Breast Cancer Intrinsic Classifier Information. at the World Wide Web (www) aruplab.com/Lab-Tests/General-Oncology/PAM50/index.jsp). […] In addition to the subtype classification, a PAM50proliferation score was calculated using the previously described 11-gene signature (BIRC5, CCNB1, CDC20, CDCA1, CEP55, KNTC2, MKI67, PTTG1, RRM2, TYMS, UBE2C) (Nielsen et al., Clin Cancer Res 16(21):5222-32, 2010). The significance of proliferation was evaluated using a classification into quartiles, and using the proliferation scores as a continuous variable. […]

Take `CC(=O)O[C@H]1C(=O)[C@@]2(C)[C@H]([C@H](OC(=O)c3ccccc3)[C@]3(O)C[C@H](OC(=O)[C@H](O)[C@@H](NC(=O)c4ccccc4)c4ccccc4)C(C)=C1C3(C)C)[C@]1(OC(C)=O)CO[C@@H]1C[C@@H]2O` [paclitaxel]: the “HR for OS, low proliferation score” value came out at 0.232.
